The values that follow come from US4771044A, “Tetraoxo compounds and pharmaceutical compositions” (Kali-Chemie Pharma GmbH, priority 1985, dated 1988).

In one data set the test system is male mice. The conditions noted are these: mouse, in vivo, 1440 min. As to the method: 1. Determination of Minimum Toxic Dose
Male mice weighing 20 to 25 g are administered per os and i.p. maximum doses of 300 mg/kg of the test substances. The animals are carefully observed for three hours for toxic symptoms. During a period of 24 hours following the administration all symptoms and deaths are recorded. Side reactions are likewise observed and recorded. When death or strong toxic symptoms are observed, further mice are administered increasingly smaller doses. The lowest dose which produces death or strong toxic symptoms is given as the minimum toxic dose.

For data set [1], the system named is female Wistar rats. As to the kind of experiment: Behavioral changes of rats in punishment conflict situation (Skinner box), anxiolytic properties. It is filed as in vivo, rat. The conditions noted are these: po, 1 h. As for the experimental part:
4. Evaluation of anxiolytic properties.
For evaluating the anxiolytic properties of the compounds a modified method according to Davidson et al (see The Benzodiazepines, Raven Press New York 1973 pp 327-345) is used, whereby the ability of the compounds to change the behavior of rats in a punishment conflict situation is examined.
In order to create the conflict situation the following experimental set up and procedure are used:
The tests are performed in Skinner boxes which are provided with an electrifyable grid-floor, a lever which has to be pressed by the rat, an automatic feeder and 2 different light sources. Female Wistar rats having a body weight of 180-300 g are used. Prior to testing the animals are trained to obtain food by pressing the lever, whereby 2 phases of different conditions alternate. The two phases are distinguished by different lightening. During one phase a food reward is given at a fixed ratio after each 10th lever press (=FR 10), yet simultaneous by with the food pellet an electric food shock punishment is delivered. During the other phase food reward is obtained without any electric punishment, yet lever pressing is rewarded with a food pellet far less frequently and at varying time intervals only (average interval 30 sec=VI30). During each […]. trial session […] alternate with 6 FP10 phases (120 sec. each).
For testing the compounds each animal is subjected to the 47 min. test procedure once a day on 4 consecutive days always at the same time. On days 1, 2 and 3 the animals are given per os 10 ml/kg of 2% tylose soluton 60 min. prior to test begin. On day 4 they are given a dose of the test compound in the tylose solution. For each animal the number of lever press responses in the punished FR10 phases and in the unpunished VI30 phases are recorded seperately for each day. For each animal the mean values from the results of the first three days are taken as control values. The results from the 4th day are compared with these control values. The lowest doses which produce significant changes in the number of lever presses are determined for the unpunished phase and for the punished phase as the minimum effective doses (=MEDup and MEpp). Increased activity during the punished phase is due to anxiolytic effects of the test compound. Reduced activity during the unpunished phase is an indication of sedative effects of the compound.

In data set [2] the test system is female Wistar rats. Briefly: CAR-test (conditioned avoidance response) in rats, antipsychotic properties. Format: in vivo. The conditions noted are these: po, 1 h, rat, per os, one hour prior to testing. As for the experimental part: 2. Evaluation of antipsychotic properties in the CAR-test procedure in rats.
The CAR test is performed in a modification of the experimental set up described by Capaldi et al (see R. D. Myers (ed): Methods in Psychobiology, Academic Press, New York, pp. 71-74). Fully automated one-way shuttle boxes are used, which are divided into 2 compartments by a wall with a hole. The floor of the box is a grid of stainless steel through which electric stimuli can be delivered. The ceiling of the box is provided with a lamp and a loudspeaker giving a buzzertone. In order to avoid the electric stimulus in the first starting compartment the animals can cross over into the safe second compartment.
During the test procedure the animals are placed into the starting compartment and at the same time the light and the loudspeaker are switched on as a warning signal (=conditioned stimulus). If at this warning signal already the animals cross over into the safe compartment, this is considered a CAR and is automatically recorded. If the animals don't cross over into the safe compartment within 5 sec. an electric shock is delivered additionally through the floor grid (=unconditioned stimulus) for a period of up to 15 sec. If at the presentation of the electric shock the animals cross over into the safe compartment, this is considered an unconditioned escape response (=UER). As soon as the animals have crossed over into the safe compartment the stimuli are switched off automatically.
For the test female Wistar rats having a body weight of 140-210 g are used. They are trained in a 20 trial session on the day before and only such animals which show CAR exclusively are used for the drug experiments.
Groups of 4 animals are used for each dose of the test compounds, the animals are placed into the test situation 15 times each, and the average value of the last 10 trials is taken into account.
The test compounds are administered per os in a volume of 10 ml/kg of 2% tylose solution one hour prior to testing. To a control group tylose solution only is administered. The dose which reduces CAR by 50% and thus leads to a 50% avoidance block is determined (=ED50 AB). Furthermore the dosis which reduces UER by 50% and thus leads to a 50% escape block is determined (=ED50 EB).

For the next data set, the system named is male NMRI-mice. As to the kind of experiment: Inducement of head-shaking syndrome in mice by interaction with subthreshold dose of 5-HTP, antidepressive properties. Format: in vivo. The conditions noted are these: mouse, p.o.; pargyline 25 mg/kg i.p. pretreatment, 50 mg/kg 5-HTP i.p.; 60 min. As for the experimental part:
3. Evaluation of antidepressive properties.
This effect is typical of antidepressives. For this a modified method according to Corne et al (see Br.J.Pharmacol. 20, pp 106-120) is used to determine the ability of the compounds to induce a head-shaking syndrome in mice in interaction with a subthreshold dose of 5-HTP.
Male NMRI-mice having a body weight of 20-30 g are used. 60 min. prior to administration of the test compounds the animals are given an i.p. injection of 25 mg/kg of the MAO-inhibitor pargyline dissolved in a volume of 10 ml/kg of 2% tylose solution. Groups of 20 animals are used for each dose of the test compounds. The test compounds are administered per os in a volume of 10 ml/kg of 2% tylose solution. After 30 min. 50 mg/kg 5-HTP in a volume of 10 ml/kg of 2% tylose solution are injected i.p. and each animal is placed in a case individually. A group of control animals receives only the pargyline injection, the 5-HTP injection and 2% tylose solution p.o.
60 min. after administration of the test compounds (=30 min. after 5-HTP injection) the animals are observed for 120 sec. in order to check, whether or not the head-shaking-syndrome occurs.
The ED50 is defined as the dose at which the number of animals showing a head-shake-syndrome is increased by 50% as compared with the control group.

[3] abbreviates: rat, p.o., punished FR10 phase, 60 min. prior to test, read-out: MEDPP (minimum effective dose, punished phase).
[4] abbreviates: rat, p.o., unpunished VI30 phase, 60 min. prior to test, read-out: MEDUP (minimum effective dose, unpunished phase).
[5] abbreviates: read-out: ED50 AB (dose leading to 50% avoidance block).
Setting [6] is: read-out: ED50 EB (dose leading to 50% escape block).

Read-outs that look alike come from different tables or passages of the source.

For the compound `CCCCN1C(=O)C2C(=O)N(CCCCN3CCN(c4ccccc4OC)CC3)C(=O)C(C1=O)C2(C)C` [Compound 3107], the “Minimum Toxic Dose” value with male mice (ip) is recorded as 200 mg/kg; with male mice (po), more than 300 mg/kg. Moreover, the values for the minimal effective dose with female Wistar rats [1] (setting [3]) and in the data set with female Wistar rats [1] (setting [4]) were 14.7 µmol/kg and 147 µmol/kg, respectively. For the same compound, the 50% effective dose (ED50) in the data set with female Wistar rats [2] (setting [5]) is 27 µmol/kg; in the data set on female Wistar rats [2] (setting [6]), 70 µmol/kg.
Regarding `CCCCN1C(=O)C2C(=O)N(CCCCN3CCN(c4ccccc4OCC)CC3)C(=O)C(C1=O)C2(C)C` [Compound 3110], the “Minimum Toxic Dose” value with male mice (ip) and in the data set on male mice (po) was more than 300 mg/kg in each case. Moreover, the minimal effective dose is 6.8 µmol/kg with female Wistar rats [1] (setting [3]) and more than 215 µmol/kg in the data set on female Wistar rats [1] (setting [4]). Moreover, the ED50 in the data set on female Wistar rats [2] (setting [5]) turned out to be 50 µmol/kg; with female Wistar rats [2] (setting [6]) it was 200 µmol/kg.
With `CCCCN1C(=O)C2C(=O)N(CCCCN3CCN(c4ccc(F)cc4)CC3)C(=O)C(C1=O)C2(C)C` [Compound 3135], the “Minimum Toxic Dose” value with male mice (ip) and with male mice (po) was more than 300 mg/kg throughout. In addition, the “ED50, inducement of head-shaking-syndrome by interaction with 5-HTP” value (“ED50, inducement” for short) with male NMRI-mice is 72 µmol/kg.
Regarding `CCCCCCN1C(=O)C2C(=O)N(CCCCCN3CCN(c4ccccc4OC)CC3)C(=O)C(C1=O)C2(C)C` [Compound 3142], the “ED50, inducement” value in the data set with male NMRI-mice was 74 µmol/kg.
Turning to `CCCCCCN1C(=O)C2C(=O)N(CCCCCN3CCN(c4cccc(C)c4)CC3)C(=O)C(C1=O)C2(C)C` [Compound 3143], the “Minimum Toxic Dose” value with male mice (ip) and in the data set with male mice (po) was more than 300 mg/kg throughout. In addition, the “ED50, inducement” value with male NMRI-mice was 130 µmol/kg.
In the case of `CCCCN1C(=O)C2C(=O)N(CCCCN3CCN(c4ncccn4)CC3)C(=O)C(C1=O)C2(C)C` [Compound 3304], the minimal effective dose in the data set on female Wistar rats [1] (setting [3]) is 21.5 µmol/kg; in the data set on female Wistar rats [1] (setting [4]), more than 215 µmol/kg.
Take `CN1C(=O)CN=C(c2ccccc2)c2cc(Cl)ccc21` [Diazepam, reference compound]: the minimal effective dose was 31.6 µmol/kg in the data set on female Wistar rats [1] (Rattus norvegicus, read-out: MEDPP (minimum effective dose, punished phase)) and 46.4 µmol/kg in the data set with female Wistar rats [1] (Rattus norvegicus, read-out: MEDUP (minimum effective dose, unpunished phase)).

A word on the ED50: it is the dose that gives a 50% effect, or the effect in half of the subjects.
